# Laboratory results from patent US5688803A, “Tricyclic dicarbonyl derivatives” (Hoffmann-La Roche Inc., priority 1994, dated 1997).
# Counter-ions that a name gives are not always drawn. Like-named read-outs stand apart in the source and are kept apart here.
# Columns and labels:
# [1] = molecular target: T1, glycine binding site on the NMDA receptor (Rattus norvegicus, UniProt P35439); test: Inhibition of [3H]-DCKA (3H-5,7-dichlorokynurenic acid) binding to the glycine binding site on the NMDA receptor, rat brain membranes
# T1 construct: membrane preparations from rat brain; from tissue; host or cells: rat brain membranes
# Procedure: In order to determine the unspecific binding, the corresponding ligands with concentrations of 1 mM glycine and, respectively, 1 mM glutamate are added. Membrane-bound radioligand is separated from non-bound ligands by centrifugation (15 min, at 40 000 kg; ^3 H-DCKA) or filtration (combination of Whatmann GF/C and GF/B filters; ^3 H-AMPA).
# The described substances are used in the binding experiments in different concentrations. The concentrations which inhibited 50% of the binding were determined on the basis of dosage-activity curves for the inhibition of the binding of the corresponding radioligands.
# [2] = molecular target: glutamate binding site on the kainate/AMPA receptor; test: Inhibition of [3H]-AMPA binding to the glutamate binding site on the kainate/AMPA receptor, rat brain membranes; details: 10 nM ^3 H-AMPA; membrane preparations from rat brain; unspecific binding with 1 mM glutamate; filtration
# Procedure: Carefully washed membrane preparations from rat brain are used for the binding studies. The radioligands are used with concentrations of 20 nM ^3 H-DCKA and, respectively, 10 nM ^3 H-AMPA.
# In order to determine the unspecific binding, the corresponding ligands with concentrations of 1 mM glycine and, respectively, 1 mM glutamate are added. Membrane-bound radioligand is separated from non-bound ligands by centrifugation (15 min, at […]; ^3 H-DCKA) or filtration (combination of Whatmann GF/C and GF/B filters; ^3 H-AMPA).
# The described substances are used in the binding experiments in different concentrations.
# [3] = 20 nM ^3 H-DCKA, membrane preparations from rat brain, unspecific binding with 1 mM glycine, centrifugation, read-out: [^3 H]-DCKA IC50
SMILES,"IC50 [1, 3] [nM]",IC50 [2] [nM],IC50 [1] [nM]
"O=c1[nH]nc2c3ccc(Cl)cc3[nH]c(=O)n12 [Example 3, 8-Chloro-2,3,5,6-tetrahydro-1,2,4-triazolo[4,3-c]quinazoline-3,5-dione]",432,1750,
"O=c1[nH]nc2c3ccc(F)cc3[nH]c(=O)n12 [Example 6, 8-Fluoro-2,3,5,6-tetrahydro-1,2,4-triazolo[4,3-c]quinazoline-3,5-dione]",710,8160,
"O=c1[nH]nc2c3ccc(Br)cc3[nH]c(=O)n12 [Example 8, 8-Bromo-2,3,5,6-tetrahydro-1,2,4-triazolo[4,3-c]quinazoline-3,5-dione]",322,1170,
"O=c1[nH]nc2c3ccc(I)cc3[nH]c(=O)n12 [Example 9, 8-Iodo-2,3,5,6-tetrahydro-1,2,4-triazolo[4,3-c]quinazoline-3,5-dione]",189,1480,
"O=c1[nH]nc2c3cc(F)c(Cl)cc3[nH]c(=O)n12 [Example 10, 8-Chloro-9-fluoro-2,3,5,6-tetrahydro-1,2,4-triazolo[4,3-c]quinazoline-3,5-dione]",202,1250,
"O=c1[nH]nc2c3cc(Cl)c(Cl)cc3[nH]c(=O)n12 [Example 11, 8,9-Dichloro-2,3,5,6-tetrahydro-1,2,4-triazolo[4,3-c]quinazoline-3,5-dione]",31,660,
"O=c1[nH]nc2c3c(Cl)cc(Cl)cc3[nH]c(=O)n12 [Example 12, 8,10-Dichloro-2,3,5,6-tetrahydro-1,2,4-triazolo[4,3-c]quinazoline-3,5-dione]",79,620,
"Cc1cc2[nH]c(=O)n3c(=O)[nH]nc3c2cc1C [Example 14, 8,9-Dimethyl-2,3,5,6-tetrahydro-1,2,4-triazolo[4,3-c]quinazoline-3,5-dione]",132,2310,
"COc1ccc2c(c1)[nH]c(=O)n1c(=O)[nH]nc21 [Example 17, 8-Methoxy-2,3,5,6-tetrahydro-1,2,4-triazolo[4,3-c]quinazoline-3,5-dione]",180,2370,
"O=c1[nH]nc2c3ccc([N+](=O)[O-])cc3[nH]c(=O)n12 [Example 21, 8-Nitro-2,3,5,6-tetrahydro-1,2,4-triazolo[4,3-c]quinazoline-3,5-dione]",690,243,
"O=c1[nH]nc2c3ccc(C(F)(F)F)cc3[nH]c(=O)n12 [Example 23, 8-Trifluoromethyl-2,3,5,6-tetrahydro-1,2,4-triazolo[4,3-c]quinazoline-3,5-dione]",379,1010,
"O=c1[nH]nc2c3cc([N+](=O)[O-])c(Cl)cc3[nH]c(=O)n12 [Example 24, 8-Chloro-9-nitro-2,3,5,6-tetrahydro-1,2,4-triazolo[4,3-c]quinazoline-3,5-dione]",359,362,
"O=c1[nH]nc2c3cc(Cl)c([N+](=O)[O-])cc3[nH]c(=O)n12 [Example 25, 9-Chloro-8-nitro-2,3,5,6-tetrahydro-1,2,4-triazolo[4,3-c]quinazoline-3,5-dione]",50,50,
"O=c1nc2c3cc(Cl)c([N+](=O)[O-])cc3[nH]c(=O)n2[nH]1 [Example 26, 9-Chloro-8-nitro-1-yl-2,3,5,6-tetrahydro-[1,2,4]triazolo[1,5-c]quinazoline-2,5-dione sodium salt]",43,82,
"O=c1[nH]nc2c3cc(F)c([N+](=O)[O-])cc3[nH]c(=O)n12 [Example 27, 9-Fluoro-8-nitro-2,3,5,6-tetrahydro-1,2,4-triazolo[4,3-c]quinazoline-3,5-dione]",360,189,
"Nc1cc2c(cc1Cl)[nH]c(=O)n1c(=O)[nH]nc21 [Example 29, 9-amino-8-chloro-2,3,5,6-tetrahydro-1,2,4-triazolo[4,3-c]quinazoline-3,5-dione hydrochloride]",1320,8590,
"CN(C)c1cc2c(cc1[N+](=O)[O-])[nH]c(=O)n1c(=O)[nH]nc21 [Example 30, 9-Dimethylamino-8-nitro-2,3,5,6-tetrahydro-1,2,4-triazolo[4,3-c]quinazoline-3,5-dione]",342,47,
"O=c1[nH]nc2c3cc(N4CCCC4)c([N+](=O)[O-])cc3[nH]c(=O)n12 [Example 32, 8-Nitro-9-pyrrolidin-1-yl-2,3,5,6-tetrahydro-1,2,4-triazolo-[4,3-c]quinazoline-3,5-dione]",3600,163,
"O=c1[nH]nc2c3cc(N4CCOCC4)c([N+](=O)[O-])cc3[nH]c(=O)n12 [Example 34, 9-morpholin-4-yl-8-nitro-2,3,5,6-tetrahydro-1,2,4-triazolo[4,3-c]quinazoline-3,5-dione]",8540,296,
"O=c1nc2c3cc(-n4ccnc4)c([N+](=O)[O-])cc3[nH]c(=O)n2[nH]1 [Example 36, 9-Imidazol-1-yl-8-nitro-2,3,5,6-tetrahydro-[1,2,4]-triazolo[1,5-c]quinazoline-2,5-dione]",2560,16,
"O=c1[nH]nc2c3cc([N+](=O)[O-])c([N+](=O)[O-])cc3[nH]c(=O)n12 [Example 37, 8,9-Dinitro-2,3,5,6-tetrahydro-1,2,4-triazolo[4,3-c]quinazoline-3,5-dione]",,117,640
"O=c1[nH]nc2c3cc(Br)c([N+](=O)[O-])cc3[nH]c(=O)n12 [Example 38, 9-Bromo-8-nitro-2,3,5,6-tetrahydro-1,2,4-triazolo[4,3-c]quinazoline-3,5-dione]",68,71,
"O=c1[nH]ncc2c1c(O)nc1cc(Cl)ccc12 [Example 43, 8-Chloro-5-hydroxy-3,4-dihydro-pyridazino [4,5-c]quinolin-4-one]",909,,
"O=c1[nH][nH]c2c1c(O)nc1cc(Cl)ccc12 [Example 48, 7-Chloro-4-hydroxy-2,3-dihydro-1H-pyrazolo[4,3-c]quinolin-3-one]",193,7310,
"O=c1[nH][nH]c2c1c(O)nc1cc(Cl)c(Cl)cc12 [Example 49, 7,8-Dichloro-4-hydroxy-2,3-dihydro-1H-pyrazolo[4,3-c]quinolin-3-one]",73,1370,
"O=c1[nH]oc2c1c(=O)[nH]c1cc([N+](=O)[O-])ccc12 [Example 55, 7-nitro-2,3,4,5-tetrahydro-isoxazol-[4,5-c]quinoline-3,4-dione]",459,421,
"O=c1[nH]oc2c1c(=O)[nH]c1cc(Cl)ccc12 [Example 56, 7-Chloro-2,3,4,5-tetrahydro-isoxazolo[4,5-c]quinoline-3,4-dione]",266,20,
O=c1nc2c3cc(N4CCCC4)c([N+](=O)[O-])cc3[nH]c(=O)n2[nH]1 [sodium salt],3060,336,
